Where “and” joins values, the source holds several entries; their conditions need not be identical. Identical values can stand only once.

This note sets out measurements from US8993007B2, “Preparation used for anti-tachyarrhythmia and its preparation method” (Heshengyuan of Chinese Medicine Research & Development …, priority 2012, dated 2015).

Assay [1] has as its system connexin 43. Briefly: Western Blot test of connexin 43 in MI areas. Type of assay: in vivo, rats. Conditions: Metoprolol, Shengsong Yangxin capsule, intragastric 7 days. Here is the method:
The rats were fixed the on their back on board and chloral hydrate (3.5%, […]) intraperitoneally administered. Between the rib 4 and 5 on the left side, an open was cut into pleural cavity and the pericardium was torn open, then the heart was extruded by light pressure to the thorax. Two mm beneath left auricle, a ligation was done on left anterior descending artery with surgical suture (USP 0) and the heart was put back to the thorax. The cut open was closed and stitched. Penicillin (up to 80,000 unit) was used for the incision to protect again infection.
Eighty-four rats' models were randomly assigned to 6 groups, 14 for each. They were the model group, the Metoprolol group, the Shengsong Yangxin capsule group, the large-dose extract group, the moderate-dose extract group, the small-dose extract group. Two more groups added were the control group of 13 rats and sham operation group of 13 rats. Some rats were dead the next day before intragastrical administration: 1 in the sham operation group, model group, Metoprolol group, Shengsong Yangxin capsule group, large-dose extract group and moderate-dose extract group respectively and 2 in the small-dose extract group.
1.2.3 Medicines Doses and Preparation. See Section 1.2.3 in the Experiment Example 1. […]
For orientation: Immunoblotting shows a protein as a band on a membrane.

Assay [2] has as its system phospho-connexin 43 (ser 368). In words: Immunohistochemical expression of phospho-connexin 43 in left ventricle. Type of assay: in vivo, rats. As to conditions: immunohistochemistry; Metoprolol, Shengsong Yangxin capsule; intragastric 7 days. Here is the method:
(§1) Two primary antibodies were used in immunohistochemical test. The connexin 43 rabbit ploy-colonal antibody was supplied by CST, USA, Batch No. 08/2011 and phospho-connexin 43 (ser 368) rabbit ploy-colonal antibody was supplied by Santa Cruz, USA, Batch no. G2011. SP 2-step reagent kit for secondary antibody was supplied by Beijing Zhongshan Goldenspace Biotechnology Co. Ltd., Batch no. K116812C. Anhydrous ethyl alcohol was supplied by Beijing Chemical Works, 2500 ml/bottle, Batch no. 20110808.95% ethanol was supplied by Beijing Chemical Works, 2500 ml/bottle, Batch no. 20110808. Formalin solution was supplied by Xilong Chemical Corporation, 500 ml/bottle, Batch no. 1110082. Xylene solution was supplied by Beijing Chemical Works, 500 ml/bottle, Batch no. 20110808. Paraffin section (54-56° C.) was supplied by Beijing Beihuakangtai Reagents Co. Ltd., Batch no. 20110428. DAB reagent kit was supplied by Beijing ComWin Biotech Co. Ltd., Batch no. 03911H. Polylysine, strength 25 mg, was supplied by Shanghai Sigma-aldrich Trading Co. Ltd., Batch no. P1399. Microscopic cover glass (24×24 mm) and slide glass (model 7105) were supplied by Beijing Chuanganghuaxin Experimental Instrument Co. Ltd. Stainless steel pressure port, microwave oven, thermostatic waterbath, immunohistochemistry kit, antigen retrieval kit, and microscope. […]

Assay [3] deals with connexin 43. In words: Immunohistochemical expression of connexin 43 in left ventricle. It counts as in vivo, rats. As to conditions: immunohistochemistry; Metoprolol, Shengsong Yangxin capsule; intragastric 7 days. Here is the method: as §1
Assay [4] deals with Ca^2+-ATPase. Briefly: Ca2+-ATPase concentration in cardiac tissue homogenate of MI rats (assay kit). It counts as in vivo. Conditions: Metoprolol, Shengsong Yangxin capsule (doses per b188: 2.25 mg/kg, 0.432 g/kg), intragastric 7 days. Here is the method: (§2) The rats were fixed on their back on board and chloral hydrate (10 mg/kg) intraperitoneally administered. Between the rib 4 and 5 on the left side, an open was cut into pleural cavity and the pericardium was torn open, then the heart was extruded by light pressure to the thorax. Two mm beneath the left auricle, a ligation was done on left anterior descending artery with surgical suture (USP 0) and the heart was put back to the thorax. The cut open was closed and stitched. Penicillin (up to 80,000 unit) was used for the incision to protect again infection.
(§3) Forty-two rats models were randomly assigned to 6 groups, 7 for each. They were the model group, the Metoprolol group, the Shengsong Yangxin capsule group, the large-dose extract group, the moderate-dose extract group, the small-dose extract group. Added were a control group of 6 rats and sham operation group of 6 rats. Totally there were 8 groups.
(§4) 1.2.3 Medicines Doses and Preparation. See Section 1.2.3 in the Experiment Example 1.
(§5) Starting from the next day after model establishment, the medicines were all administered intragastrically to the relevant groups accordingly, while the model group and sham operation group were given normal saline. The treatment course lasted for 7 days. […]

Assay [5] deals with Na^+—K^+-ATPase. In words: Na+-K+-ATPase concentration in cardiac tissue homogenate of MI rats (assay kit). Type of assay: in vivo. As to conditions: Metoprolol, Shengsong Yangxin capsule (doses per b188: 2.25 mg/kg, 0.432 g/kg), intragastric 7 days. Here is the method:
as §2, §3, §4, §5

The test system of assay [6] is Wistar male rats. In words: MI areas after ligation of left anterior descending artery. Type of assay: in vivo. As to conditions: Metoprolol 2.25 mg/kg, Shengsong Yangxin capsule 0.432 g/kg; intragastric 7 days. Here is the method:
The rats were fixed on their back on board and chloral hydrate (10 mg/kg) intraperitoneally administered. Between the rib 4 and 5 on the left side, an open was cut into pleural cavity and the pericardium was torn open, then the heart was extruded by light pressure to the thorax. Two mm beneath left auricle, a ligation was done on left anterior descending artery with surgical suture (USP 0) and the heart was put back to the thorax. The cut open was closed and stitched. Penicillin (up to 80,000 unit) was used for the incision to protect again infection.
Sixty-six rats models were randomly assigned to 6 groups, 11 for each. They were the model group, the Metoprolol group, the Shengsong Yangxin capsule group, the large-dose extract group, the moderate-dose extract group and the small-dose extract group.
1) The Metoprolol group. Due to the administration of β receptor inhibitor after myocardial infarction (MI), Metoprolol was administered initially at small dose of 12.5 mg, bid, that is, the dosage was 25×0.018×5=2.25 mg/kg. Metoprolol 67.5 mg was accurately weighed and evenly dissolved with 300 ml normal saline (0.9%). […]
The hearts of the rats were harvested 2 hours after the last treatments were administered and the residues of blood in the heart chambers were washed with normal saline. […] Armed with the MPIDS-500, two technicians measured the MI areas on both sides of the slices. […]

Assay [7] deals with CD mice. In words: CaCl2-induced arrhythmia, efficacy screening test. It counts as in vivo. As to conditions: CaCl2 tail vein 45 min after duodenal administration, amiodarone 78 mg/kg, NO.1 18.2, NO.2 157.6, NO.3 9.1, NO.4 462, NO.5 139, NO.6 1.16 mg/kg, NO.7 1.3 g/kg; for Duration (of arrhythmia), single animals: animals 1-10; for Duration (of arrhythmia), Mean: mean of 10 animals. Here is the method:
90 CD mice, male, weighing 28-30 g, Beijing Vital River Laboratory Animal Technology Co., license number Sea (Beijing) 2006-0009. […] Before administration each drug was prepared to the desired concentration with physiological saline, duodenal route of administration, the dose of 10 mL/kg. […] Observed ECG whether induced arrhythmia, recorded the duration of ventricular arrhythmia; and the results were statistically analyzed.

`COCCc1ccc(OCC(O)CNC(C)C)cc1` (stereo not drawn) [Metoprolol]: in assay [1], the “Gray degree of Connexin 43” value was 0.5443 ± 0.1523**ΔΔ. Also, in assay [2], the “IOD values of phospho-connexin 43” value is reported as 2686.5321 ± 1725**ΔΔ and the “expression Area of phospho-connexin 43” value is 13283.8000 ± 8070**ΔΔ. In addition, in assay [3], the “IOD of connexin 43” value was 4535.0243 ± 1743**ΔΔ and the “expression Area of connexin 43” value is listed as 17723.1800 ± 6672**ΔΔ. In addition, the “The concentrations of Ca^2+-ATPase” value in assay [4] is recorded as 17.5339 ± 0.2439**ΔΔ U/ml. For the same molecule, the “Concentrations of Na^+-k^+-ATPase” value in assay [5] is reported as 10.1177 ± 0.167**ΔΔ U/ml. Moreover, the “MI area/total area of ventricular chamber (%)” value in assay [6] came out at 19.0847 ± 2.819 %.
Take `COc1cc2c(cc1OC)[C@@H]1Cc3ccc(OC)c(OC)c3CN1CC2` [Sample6, Tetrahydropalmatine]: in assay [7], the “Duration (of arrhythmia), single animals” value was 70 s (2×) and 79 s (2×) and 100 s and 47 s and 181 s and 104 s and 130 s and 80 s; the “Duration (of arrhythmia), Mean” value amounted to 94.0 s.
Regarding `CCCCc1oc2ccccc2c1C(=O)c1cc(I)c(OCCN(CC)CC)c(I)c1` [amiodarone], in assay [7], the “Duration (of arrhythmia), single animals” value is 60 s and 106 s and 76 s and 53 s and 104 s and 99 s and 0 s and 86 s and 88 s and 120 s; the “Duration (of arrhythmia), Mean” value was 79.2 s.
